Measured values published in US20160082015A1, “METHODS, COMPOSITIONS AND KITS FOR PROMOTING MOTOR NEURON SURVIVAL AND TREATING AND DIAGNOSING NEURODEGENERATIVE DISORDERS” (PRESIDENT AND FELLOWS OF HARVARD COLLEGE, priority 2013, published 2016).

Tests used:
HB9::GFP MNs = experiment: Image analyses of synapses and neurite arborization; type: cell-based, mouse; settings: 5 μM
From the text: (§1) For synapse analysis, the inventors quantified imaging data using the PerkinElmer Acapella software spot detection algorithm. Synapses were defined as the overlap of presynaptic and postsynaptic spots on MNs. On each GFP^+ cell, we first drew a circle around the cell body with a diameter of approximately two cell body diameters, similar to that described by Ullian et al. (Schwann cells and astrocytes induce synapse formation by spinal motor neurons in culture. Mol Cell Neurosci., 2004, 25: 241-251) as the area for spot detection. Within each circle, presynaptic sites were detected using a primary antibody against synapsin and a secondary antibody conjugated with Alexa-632. Candidate spots that met an average intensity threshold were accepted as legitimate presynaptic punctac. Then we expanded the radius of each presynaptic puncta by 1 pixel, since the pre- and post-synaptic spots often were slightly offset, especially at higher magnifications, and measured the intensity in the postsynaptic channel, using a PSD95 primary antibody and a secondary antibody conjugated with Alexa-546. Postsynaptic punctae that exceeded the threshold mean intensity threshold were accepted, permitting us to define “colocalized” spots, or synapses.
(§2) The neurite tracing method in Acapella software is based on methods developed at CSIRO at perkinelmer.com/pages/020/cellularimaging/assaysneuriteoutgrowth.xhtm. The cell bodies of MNs were located by expression of HB9:GFP, and the neurites were also detected by GFP fluorescence. The algorithm measured the lengths and fluorescence intensities of each neurite and the branching level (primary, secondary, etc). The total lengths of neurites and the numbers, lengths and fluorescent intensities of primary and secondary branches were measured based on selected threshold parameters.

SOD1^G93A/HB9::GFP MNs = experiment: as above; type: cell-based, mouse; settings: 5 μM
From the text: as §1, §2

wild-type human SOD1 = experiment: SOD1 protein levels by Western blotting; type: cell-based; settings: wtSOD1/Hb9::GFP cultures
Protocol: In FIG. 5A cultures grown for 21 days in the indicated conditions were analyzed for levels of human SOD1 protein. The antibody used was specific for human SOD1, as is seen by the lack of staining on wild-type mouse MNs (HB9::GFP). When analyzed on day 21, levels of mutant SOD1^G93A protein, but not wt SOD1 protein, were decreased when cells were treated with kenpaullone in the absence of trophic factors. When analyzed on day 21, SOD1^G93A protein, but not wt SOD1 protein, was decreased when cultures were treated with kenpaullone in the presence of trophic factors as well (FIG. 5B). […] By this analysis, again on day 21, the average amount of SOD1 per MN was decreased by kenpaullone treatment in both +TF and −TF conditions. Scale bar represents 50 μm (FIG. 5C). Data are presented as mean±SEM. * p<0.05, *** p<0.001 (Student's t test, two-tailed).
Since the additional death undergone by the SOD1^G93A/HB9::GFP MNs seems likely to relate to their expression of high levels of SOD1^G93A protein, one possibility is that kenpaullone could act in part by reducing those levels. Kenpaullone was added to cultures on day 4, and the levels of mutant SOD1^G93A protein were analyzed by Western blotting on day 21 (FIGS. 5A and 5B). […] The endogenous mouse SOD1 protein was not affected in either HB9::GFP or SOD1^G93A/HB9::GFP cultures (data not shown). […]

ubiquitin = experiment: MN ubiquitin levels by single cell imaging; type: cell-based, mouse; settings: days 21 and 28, SOD1^G93A/HB9::GFP MNs
From the text: Insets show higher magnification of cells contained within white circles. Data are presented as mean±SEM. * p<0.05 (Student's t test, two-tailed). Scale bar represents 50 μm.
It has been shown that SOD1^G93A accumulates in ubiquitinated aggregates after about 2 weeks of culture (Di Giorgio et al., 2007). Ubiquitinated proteins are found to be elevated in MNs of ALS patients and SOD1^G93A mice during neural degeneration (Watanabe et al., 2001; Wang et al., 2003). The inventors also observed the appearance of aggregates in their cultures at these later times (FIG. 5C). This led us to examine when differences in SOD1^G93A protein levels began to appear. […] Thus, the ability of kenpaullone to reduce the later periods of SOD1^G93A/HB9::GFP death coincides in time with the decreased levels of SOD1^G93A and ubiquitin.

[1] = tested on: site-specific phosphorylation of kinases in MN cultures; experiment: Phospho-Kinase Antibody Array; type: cell-based, mouse
Protocol: Freshly dissociated HB9::GFP EBs were plated at a density of 3 million GFP+ cells/10 cm dish and trophic factor withdrawal/compound addition was performed on day 4. Protein lysates were generated 6 and 24 h after treatment using RIPA buffer supplemented with protease and phosphatase inhibitors (Pierce Biotechnology). Equal amounts of total protein from treatment groups were added to Phospho-Kinase Antibody Arrays (R&D Systems, #ARY003). Arrays were prepared following the manufacturer's instructions and developed with SuperSignal West Pico Chemiluminescent Substrate (Pierce Biotechnology). Background signal was subtracted and duplicate spot pixel densities were averaged using QuantityOne software (BioRad).

[2] = trophic factors removed day 4, analyzed day 21

O=C1Cc2c([nH]c3ccc(Br)cc23)-c2ccccc2N1 [Kenpaullone]
number of synapses per MN (HB9::GFP MNs; no trophic factors, day 21): dramatic increase
neuritic network of MNs (HB9::GFP MNs; [2]): maintain the neuritic network of these cells at levels seen in trophic factor supplemented cultures
synapses per MN (SOD1^G93A/HB9::GFP MNs; no trophic factors, day 21): supported their ability to maintain morphological synapses
neurite growth of MNs (SOD1^G93A/HB9::GFP MNs; [2]): allowing neurite growth beyond that seen in cells kept in trophic factors
levels of wild-type human SOD1 (wild-type human SOD1): no effect
MN levels of ubiquitin (ubiquitin): reduced
relative phosphorylation of GSK-3 [1]: significant reduction
relative phosphorylation of c-Jun [1]: reduction
relative phosphorylation of cJun N-terminal kinase (JNK) [1]: reduction
